Measured values reported in US6384061B1, “Hydantoin compounds and methods related thereto” (LG Chemical Ltd., priority 2000, dated 2002).

What was measured:
[1] = target: T1, Geranylgeranyl transferase (Bos taurus, UniProt P29702+Q5EAD5); assay: Geranylgeranyl transferase inhibiting activity (geranylgeranyl pyrophosphate, Ras-CVIL substrate); assay type: biochemical; conditions: geranylgeranyl transferase purified from bovine brain, read-out: GGtase IC50
T1 construct: Geranylgeranyl transferase was purified from bovine brain; from tissue; host or cells: bovine brain
Method in brief: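 Bovine-brain-purified enzyme run as in the farnesyl transferase assay, with geranylgeranyl pyrophosphate and Ras-CVIL substrate protein under similar reaction conditions.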

[2] = test system: intracellular Ras farnesyl transferase, Rat2 cell line; assay: Intracellular Ras farnesyl transferase inhibiting activity in transformed Rat2 cells (35S-methionine labelling, Y13-259 immunoprecipitation, SDS-PAGE); assay type: cell-based; conditions: Rattus norvegicus; transformed Rat2 fibroblast cell line; concentration inhibiting 50% of farnesyl binding of Ras protein; read-out: Ftase CIC50
Method in brief: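 Rat2 fibroblasts transformed with H-Ras, or with H-Ras carrying the K-Ras polybasic lysine C-terminus, were treated with compound (1% DMSO). After 4 h they were labelled for 20 h with 150 μCi/ml 35S-methionine. Lysates were immunoprecipitated with Y13-259, run on 13.5% SDS-PAGE and autoradiographed; CIC50 is the concentration halving farnesylated versus unfarnesylated Ras band intensity.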

Ras farnesyl transferase = target: T2, Ras farnesyl transferase (Homo sapiens, UniProt P49354+P49356); assay: Ras farnesyl transferase inhibiting activity (filter-binding, tritium-farnesylpyrophosphate, Ras-CVLS substrate); assay type: biochemical; conditions: recombinant Ras farnesyl transferase, 30 minutes at 37° C., read-out: Ftase IC50
T2 construct: made in house

IC50 [1] [µM]	IC50 (Ras farnesyl transferase) [µM]	Compound	IC50 [2] [µM]
> 10	0.016	COC(=O)C(CCSC)NC(=O)CN1C(=O)N(CCCc2cncn2Cc2ccc(C#N)cc2)C(=O)C1(C)c1cccc2ccccc12 (stereo not drawn) [Compound 57, 2-[2-(3-{3-[3-(4-cyanobenzyl)-3H-imidazol-4-yl]-propyl}-5-methyl-5-naphthalen-1-yl-2,4-dioxo-imidazolidin-1-yl)acetylamino]-4-methylsulfanyl-butyric acid methyl ester]	400
> 10	0.09	N#Cc1ccc(Cn2cncc2CN2C(=O)C(CC(=O)N3CCOCC3)N(Cc3cccc4ccccc34)C2=O)cc1 (stereo not drawn) [Compound 80, 4-{5-[4-(2-morpholin-4-yl-2-oxo-ethyl)-3-naphthalen-1-ylmethyl-2,5dioxo-imidazolidin-1-ylmethyl]-imidazol-1-ylmethyl}-benzonitrile]	< 10
> 10	0.35	CC1(c2cccc3ccccc23)C(=O)N(CCCn2ccnc2)C(=O)N1Cc1ccc(CNS(C)(=O)=O)cc1 (stereo not drawn) [Compound 37, N-{4-[3-(3-imidazol-1-yl-propyl)-5-methyl-5-naphthalen-1-yl-2,4-dioxo-imidazolidin-1-ylmethyl]-benzyl}-methanesulfonamide]	< 20
0.7	0.0048	CSCCC(NC(=O)CN1C(=O)N(CCc2c[nH]cn2)C(=O)C1(C)c1cccc2ccccc12)C(=O)O (stereo not drawn) [Compound 4, 2-(2-{3-[2-(1H-imidazol-4-yl)-ethyl]-5-methyl-5-naphthalen-1-yl-2,4-dioxo-imidazolidin-1-yl}-acetylamino)-4-methylsulfanyl-butyric acid]	10
> 10	2.5	COC(=O)C(CCSC)NC(=O)CN1C(=O)N(CCc2c[nH]cn2)C(=O)C1(C)c1cccc2ccccc12 (stereo not drawn) [Compound 3, 2-(2-{3-[2-(1H-imidazol-4-yl)-ethyl]-5-methyl-5-naphthalen-1-yl-2,4-dioxo-imidazolidin-1-yl}-acetylamino)-4-methylsulfanyl-butyric acid methyl ester]	5
> 10	0.04	CCCN1C(=O)N(CCCc2cncn2Cc2ccc(C#N)cc2)C(=O)C1(C)c1cccc2ccccc12 (stereo not drawn) [Compound 48, 4-{5-[3-(3-propyl-4-methyl-4-naphthalen-1-yl-2,5-dioxo-imidazolidin-1-yl)-propyl]-imidazol-1-ylmethyl}benzonitrile]	< 20
> 10	0.725	CC1(c2cccc3ccccc23)C(=O)N(CCCn2ccnc2)C(=O)N1Cc1ccc(S(C)(=O)=O)c(C#N)c1 (stereo not drawn) [Compound 30, 5-[3-(3-imidazol-1-yl-propyl)-5-methyl-5-naphthalen-1-yl-2,4-dioxo-imidazolidin-1-ylmethyl]-2-methylsulfonyl-benzonitrile]	< 20
> 10	0.3	CC1(c2cccc3ccccc23)C(=O)N(CCCn2ccnc2)C(=O)N1Cc1cccc(Br)c1 (stereo not drawn) [Compound 20, 1-(3-bromo-benzyl)-3-(3-imidazol-1-yl-propyl)-5-methyl-5-naphthalen-1-yl-imidazolidin-2,4-dione]	< 20
> 10	4	O=C(OCc1ccccc1)N1CCC(Cn2cncc2CN2C(=O)CN(c3cccc4ccccc34)C2=O)CC1 [Compound 74, 4-[5-(3-naphthalen-1-yl-2,5-dioxo-imidazolidin-1-ylmethyl)-imidazol-1-ylmethyl]-piperidine-1-carboxylic acid benzyl ester]	< 50
> 10	0.12	CN1CCN(C(=O)C[C@H]2C(=O)N(Cc3cncn3Cc3ccc(C#N)cc3)C(=O)N2Cc2cccc3ccccc23)CC1 [Compound 84, 4-((5S)-{4-[2-(4-methyl-piperazin-1-yl)-2-oxo-ethyl]-3-naphthalen-1-ylmethyl-2,5-dioxo-imidazolidin-1-ylmethyl}-imidazol-1-ylmethyl)-benzonitrile]	< 20
> 10	> 50	CC1(c2cccc3ccccc23)C(=O)N(CCCc2cnc[nH]2)C(=O)N1CC(=O)N1CCS(=O)(=O)C1 (stereo not drawn) [Compound 11]	< 20
> 10	0.002	CSCCC(NC(=O)CN1C(=O)N(CCn2ccnc2)C(=O)C1(C)c1cccc2ccccc12)C(=O)O (stereo not drawn) [Compound 15, 2-{2-[3-(2-imidazol-1-yl-ethyl)-5-methyl-5-naphthalen-1-yl-2,4-dioxo-imidazolidin-1-yl]-acetylamino}-4-methylsulfanyl-butyric acid]	< 20
> 10	0.1	N#Cc1ccc(Cn2cncc2CN2C(=O)C(CC(=O)O)N(Cc3cccc4ccccc34)C2=O)cc1 (stereo not drawn) [Compound 78, {1-[3-(4-cyano-benzyl)-3H-imidazol-4-ylmethyl]-3-naphthalen-1-ylmethyl-2,5-dioxo-imidazolidin-4-yl}-acetic acid]	< 20
> 10	0.055	COCCOCN1C(=O)N(CCCc2cncn2Cc2ccc(C#N)cc2)C(=O)C1(C)c1cccc2ccccc12 (stereo not drawn) [Compound 50, 4-(5-{3-[3-(2-methoxy-ethoxymethyl)-4-methyl-4-naphthalen-1-yl-2,5-dioxo-imidazolidin-1-yl]-propyl}-imidazol-1-ylmethyl)-benzonitrile]	< 20
> 10	0.0015	CC1(c2cccc3ccccc23)C(=O)N(CCCc2cnc[nH]2)C(=O)N1CC(=O)NC(CCS(C)(=O)=O)C(=O)O (stereo not drawn) [Compound 13, 2-(2-{3-[3-(3H-imidazol-4-yl)-propyl]-5-methyl-5-naphthalen-1-yl-2,4-dioxo-imidazolidin-1-yl}-acetylamino)-4-methylsulfonyl-butyric acid]	< 20
> 10	0.16	CN1C(=O)N(Cc2cncn2Cc2ccc(C#N)cc2)C(=O)C1(C)c1cccc2ccccc12 (stereo not drawn) [Compound 60, 4-[5-(3-methyl-4-methyl-4-naphthalen-1-yl-2,5-dioxo-imidazolidin-1-ylmethyl)-imidazol-1-ylmethyl]-benzonitrile]	< 20
> 10	0.21	CSCc1ccc(CN2C(=O)N(CCCn3ccnc3)C(=O)C2(C)c2cccc3ccccc23)cc1 (stereo not drawn) [Compound 27, 3-(3-imidazol-1-yl-propyl)-1-(4-methylsulfanylmethyl-benzyl)-5-methyl-5-naphthalen-1-yl-imidazolidin-2,4-dione]	< 20
> 10	0.05	CSCC[C@H](NC(=O)CC1C(=O)N(Cc2cncn2Cc2ccc(C#N)cc2)C(=O)N1Cc1cccc2ccccc12)C(=O)O (stereo partly drawn) [Compound 86, (2S)-(2-{1-[3-(4-cyano-benzyl)-3H-imidazol-ylmethyl]-3-naphthalen-1-ylmethyl-2,5-dioxo-imidazolidin-4-yl}-acetamino)4-methylsulfanyl-butyric acid]	< 10
3.4	0.0008	CSCCC(NC(=O)CN1C(=O)N(CCCc2c[nH]cn2)C(=O)C1(C)c1cccc2ccccc12)C(=O)O (stereo not drawn) [Compound 2, 2-(2-{3-[3-(1H-imidazol-4-yl)-propyl]-5-methyl-5-naphthalen-1-yl-2,4-dioxo-imidazolidin-1-yl}-acetylamino)-4-methylsulfanyl-butyric acid]	5
